Measured values published in patent US6706664B1, “Benzoxazole compounds, process for the preparation thereof and herbicides” (UBE Industries, Ltd., priority 1999, dated 2004).

Key:
Parameters in all cases: key: 0: normal development; 1: Less damaged; 2: Slightly damaged; 3: Moderately damaged; 4: Severely damaged; 5: All killed
[1] = system: velvetleaf; experiment: Soil treatment test for upland field; type: in vivo, Abutilon theophrasti; conditions: 500 g/ha, glass house 25° C., 3 weeks
Description: (§1) (0: normal development, 1: Less damaged, 2: Slightly damaged, 3: Moderately damaged, 4: Severely damaged, 5: All killed).
(§2) Wagner pots, each having an area of 1/5000 are, were packed with Ube soil (alluvial soil), and then each seed of corn, soybean, cotton, wheat, solgum, sugar beat, Large crabgrass, barnyardgrass, green foxtail, blackgrass, annual bluegrass, common lambsquartes, livid amaranth and velvetleaf were planted and covered with soil.
(§3) Each wettable powder of the desired compounds (I) shown in Table 1 prepared in accordance with Example 2 was diluted with water containing a surfactant (0.05%) and uniformly sprayed on the surface of each soil so that an effective concentration of the compound (I) in each herbicide became 500 g/ha. These plants were controlled in a glass house at an average temperature of 25° C. for 3 weeks, and then herbicidal effects thereof were investigated.
(§4) The herbicidal effects were evaluated according to the evaluation method described in the above (1).

[2] = system: young rice plant; experiment: Herbicidal test for paddy field; type: in vivo; conditions: paddy field pot, 500 g/ha dropwise at 1.5 leaf stage of barnyardgrass, 3 weeks, rank vs non-treated
Protocol: (§5) Wagner pots, each having an area of 1/5000 are, were packed with Ube soil (alluvial soil) and planted with seeds or tubers of young rice plant, barnyardgrass, bulrush, flat sedge and monochoria. Then, the pots were filled with water to a depth of 3 cm.
(§6) Each wettable powder of the desired compounds (I) shown in Table 1 prepared in accordance with Example 2 was diluted with water containing a surfactant (0.05%) and subjected to dropwise addition treatment by using pipet so that an effective concentration of the compound (I) in each herbicide became 500 g/ha at 1.5 leaf stage of barnyardgrass.
(§7) These plants were controlled in a glass house at an average temperature of 25° C. for 3 weeks, and then herbicidal effects thereof were investigated.
(§8) The herbicidal effects are evaluated according to the following 6 ranks as compared with non-treated district.
as §1

[3] = system: velvetleaf; experiment: Foliar spread test for upland field; type: in vivo, Abutilon theophrasti; conditions: foliar spray 500 ppm, 3 weeks, rank vs non-treated
Description: as §1
(§9) Wagner pots, each having an area of 1/5000 are, were packed with volcanic ash soil and then each seed of corn, soybean, cotton, wheat, solgum, sugar beat, Large crabgrass, barnyardgrass, green foxtail, blackgrass, annual bluegrass, common lambsquartes, livid amaranth, velvetleaf and morning glory was planted, covered with soil and grown in a glass house at an average temperature of […] for about 2 weeks.
(§10) Each wettable powder of the desired compounds (I) shown in Table 1 prepared in accordance with Example 2 was diluted to 500 ppm with water containing a surfactant (0.5%) and then uniformly sprayed on the above respective plants.
(§11) After these plants were controlled in a glass house at an average temperature of 25° C. for 3 weeks, the herbicidal effects thereof were investigated.
as §4

[4] = system: green foxtail; experiment: Foliar spread test for upland field; type: in vivo, Setaria viridis; conditions: foliar spray 500 ppm, 3 weeks, rank vs non-treated
Description: as §1, §9, §10, §11, §4

[5] = system: monochoria; experiment: Herbicidal test for paddy field; type: in vivo, Monochoria vaginalis; conditions: paddy field pot, 500 g/ha dropwise at 1.5 leaf stage of barnyardgrass, 3 weeks, rank vs non-treated
Protocol: as §5, §6, §7, §8, §1

[6] = system: bulrush; experiment: Herbicidal test for paddy field; type: in vivo, Scrips juncoides; conditions: paddy field pot, 500 g/ha dropwise at 1.5 leaf stage of barnyardgrass, 3 weeks, rank vs non-treated
Protocol: as §5, §6, §7, §8, §1

[7] = system: blackgrass; experiment: Soil treatment test for upland field; type: in vivo, Alopecurus aegualis; conditions: 500 g/ha, glass house 25° C., 3 weeks
Description: as §1, §2, §3, §4

[8] = system: corn; experiment: Foliar spread test for upland field; type: in vivo; conditions: foliar spray 500 ppm, 3 weeks, rank vs non-treated
Description: as §1, §9, §10, §11, §4

[9] = system: sugar beat; experiment: Foliar spread test for upland field; type: in vivo; conditions: foliar spray 500 ppm, 3 weeks, rank vs non-treated
Description: as §1, §9, §10, §11, §4

[10] = system: solgum; experiment: Foliar spread test for upland field; type: in vivo; conditions: foliar spray 500 ppm, 3 weeks, rank vs non-treated
Description: as §1, §9, §10, §11, §4

[11] = system: wheat; experiment: Foliar spread test for upland field; type: in vivo; conditions: foliar spray 500 ppm, 3 weeks, rank vs non-treated
Description: as §1, §9, §10, §11, §4

[12] = system: green foxtail; experiment: Soil treatment test for upland field; type: in vivo, Setaria viridis; conditions: 500 g/ha, glass house 25° C., 3 weeks
Description: as §1, §2, §3, §4

[13] = system: corn; experiment: Soil treatment test for upland field; type: in vivo; conditions: 500 g/ha, glass house 25° C., 3 weeks
Description: as §1, §2, §3, §4

[14] = system: soybean; experiment: Soil treatment test for upland field; type: in vivo; conditions: 500 g/ha, glass house 25° C., 3 weeks
Description: as §1, §2, §3, §4

[15] = system: sugar beat; experiment: Soil treatment test for upland field; type: in vivo; conditions: 500 g/ha, glass house 25° C., 3 weeks
Description: as §1, §2, §3, §4

[16] = system: cotton; experiment: Soil treatment test for upland field; type: in vivo; conditions: 500 g/ha, glass house 25° C., 3 weeks
Description: as §1, §2, §3, §4

[17] = system: solgum; experiment: Soil treatment test for upland field; type: in vivo; conditions: 500 g/ha, glass house 25° C., 3 weeks
Description: as §1, §2, §3, §4

[18] = system: wheat; experiment: Soil treatment test for upland field; type: in vivo; conditions: 500 g/ha, glass house 25° C., 3 weeks
Description: as §1, §2, §3, §4

[19] = system: annual bluegrass; experiment: Soil treatment test for upland field; type: in vivo, Poa annua; conditions: 500 g/ha, glass house 25° C., 3 weeks
Description: as §1, §2, §3, §4

[20] = system: livid amaranth; experiment: Foliar spread test for upland field; type: in vivo, Amaranthus lividus; conditions: foliar spray 500 ppm, 3 weeks, rank vs non-treated
Description: as §1, §9, §10, §11, §4

[21] = system: common lambsquartes; experiment: Foliar spread test for upland field; type: in vivo, Chenopodium album; conditions: foliar spray 500 ppm, 3 weeks, rank vs non-treated
Description: as §1, §9, §10, §11, §4

[22] = system: morning glory; experiment: Foliar spread test for upland field; type: in vivo, Ipomoea spps.; conditions: foliar spray 500 ppm, 3 weeks, rank vs non-treated
Description: as §1, §9, §10, §11, §4

[23] = system: livid amaranth; experiment: Soil treatment test for upland field; type: in vivo, Amaranthus lividus; conditions: 500 g/ha, glass house 25° C., 3 weeks
Description: as §1, §2, §3, §4

[24] = system: Large crabgrass; experiment: Soil treatment test for upland field; type: in vivo, Digitaria adscendens; conditions: 500 g/ha, glass house 25° C., 3 weeks
Description: as §1, §2, §3, §4

[25] = system: common lambsquartes; experiment: Soil treatment test for upland field; type: in vivo, Chenopodium album; conditions: 500 g/ha, glass house 25° C., 3 weeks
Description: as §1, §2, §3, §4

[26] = system: barnyardgrass; experiment: Soil treatment test for upland field; type: in vivo, Echinochloa crusgalli; conditions: 500 g/ha, glass house 25° C., 3 weeks
Description: as §1, §2, §3, §4

[27] = system: Large crabgrass; experiment: Foliar spread test for upland field; type: in vivo, Digitaria adscendens; conditions: foliar spray 500 ppm, 3 weeks, rank vs non-treated
Description: as §1, §9, §10, §11, §4

[28] = system: annual bluegrass; experiment: Foliar spread test for upland field; type: in vivo, Poa annua; conditions: foliar spray 500 ppm, 3 weeks, rank vs non-treated
Description: as §1, §9, §10, §11, §4

[29] = system: barnyardgrass; experiment: Herbicidal test for paddy field; type: in vivo, Echinochloa crusgalli; conditions: paddy field pot, 500 g/ha dropwise at 1.5 leaf stage of barnyardgrass, 3 weeks, rank vs non-treated
Protocol: as §5, §6, §7, §8, §1

Row | Structure (SMILES) | Effects Velvetleaf [1] | Effect Young rice plant [2] | Effects Velvetleaf [3] | Effects Green foxtail [4] | Effect Monochoria [5] | Effect Bulrush [6] | Effects Blackgrass [7] | Effects Corn [8] | Effects Sugar beat [9] | Effects Solgum [10] | Effects Green foxtail [12] | Effects Corn [13] | Effects Sugar beat [15] | Effects Cotton [16] | Effects Solgum [17] | Effects Wheat [18] | Effects Annual bluegrass [19] | Effects Livid amaranth [23] | Effects Large crabgrass [24] | Effects Common lambsquarters [25] | other results
1 | CCC(Oc1ccc(F)c(C(F)(F)F)c1)c1nc2cc(C#N)c(C#N)cc2o1 (stereo not shown) [Compound 316] | 5 | 0 | 3 | 5 | 5 | 3 | 4 | 2 | 5 | 1 | 5 | 0 | 5 | 0 | 0 | 0 | 4 | 5 | 5 | 5 | Effects Wheat [11]: 1; Effects Soybean [14]: 0; Effects Livid amaranth [20]: 5; Effects Common lambsquarters [21]: 3; Effects Morning glory [22]: 2
2 | CCC(Oc1ccc(F)c(C(F)(F)F)c1)c1nc2cc(OC)ccc2o1 (stereo not shown) [Compound 503] | 5 | – | 3 | 5 | – | – | 5 | 2 | 4 | 2 | 5 | 2 | 5 | 1 | 2 | 2 | 5 | 5 | 5 | 5 | Effects Wheat [11]: 2; Effects Barnyardgrass [26]: 5; Effects Soybean [14]: 1; Effects Livid amaranth [20]: 5; Effects Common lambsquarters [21]: 5; Effects Large crabgrass [27]: 3; Effects Annual bluegrass [28]: 3
3 | CCCC(Oc1cccc(C#N)c1)c1nc2cc(S(C)(=O)=O)c(C)cc2o1 (stereo not shown) [Compound 492] | – | 0 | 3 | 2 | 5 | 3 | – | 1 | 4 | 1 | – | – | – | – | – | – | – | – | – | – | Effects Wheat [11]: 1; Effects Livid amaranth [20]: 4; Effect Barnyardgrass [29]: 2
4 | CCC(Oc1cccc(C(F)(F)F)c1)c1nc2ccc(Cl)cc2o1 (stereo not shown) [Compound 10] | – | 0 | – | – | 1 | 3 | 2 | – | – | – | 4 | 0 | 0 | 0 | 0 | 0 | 4 | 4 | 5 | 2 | Effects Barnyardgrass [26]: 2; Effects Soybean [14]: 0; Effect Barnyardgrass [29]: 4
5 | CCC(Oc1cccc(C(F)(F)F)c1)c1nc2cc(C(F)(F)F)ccc2o1 (stereo not shown) [Compound 198] | 3 | 1 | – | – | 5 | 1 | 5 | – | – | – | 5 | 2 | 5 | 1 | 2 | 1 | 5 | 5 | 5 | 4 | Effects Barnyardgrass [26]: 4; Effect Barnyardgrass [29]: 4
